Data from patent USRE48335E1, “Polymyxin derivatives as antimicrobial compounds” (priority 2014, dated 2020).
≈ marks a conversion by molar mass, not a printed value. Read-outs that look alike come from different tables or passages of the source. Positions of bridges follow the written chain, without caps; N, C: chain ends. Non-standard residues stand in square brackets, D forms with d. Residues, ends and D or L forms follow the SMILES beside them. *: point of attachment. Phenylacetyl(4-CF3) = O=C(Cc1ccc(C(F)(F)F)cc1)*; Benzoyl(3,5-Cl2) = O=C(c1cc(Cl)cc(Cl)c1)*; Benzoyl(3-CF3) = O=C(c1cccc(C(F)(F)F)c1)*; Phenylacetyl(3-Cl) = O=C(Cc1cccc(Cl)c1)*; Octanoyl(6-Me) = CCC(C)CCCCC(=O)*; X16 = O=C(c1cc(F)c(F)c(F)c1)*; Dab = NCC[C@H](N)C(=O)O; Abu = CC[C@H](N)C(=O)O; Dap = NC[C@H](N)C(=O)O

Legend:
[1] = system: P. aeruginosa ATCC 27853; test: In vivo efficacy in mouse blood infection model (neutropenic Swiss mice); details: compound, free base 4 mg/kg intravenously 2 h after inoculation, blood at 4 h
Procedure, shortened: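 Neutropenic Swiss mice (cyclophosphamide 150 mg/kg day −4, 100 mg/kg day −1, i.p.) infected i.v. with early log-phase bacteria; 4 mg/kg free base i.v. given 2 h post-inoculation. Blood CFU by cardiac puncture 4 h post-dose; Δlog10 CFU/mL treated versus saline controls.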

[2] = system: Klebsiella pneumoniae
Procedure, shortened: (§1)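 Minimum inhibitory concentrations come from CLSI-standard broth microdilution in cation-adjusted Mueller-Hinton broth.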

[3] = system: Acinetobacter baumannii
Procedure, shortened: as §1

[4] = system: Enterobacter cloacae
Procedure, shortened: as §1

[5] = system: Pseudomonas aeruginosa
Procedure, shortened: as §1

[6] = Acinetobacter baumannii ATCC 17978, broth microdilution in CAMHB
[7] = Acinetobacter baumannii ATCC 19606, broth microdilution in CAMHB
[8] = Acinetobacter baumannii FADDI-AB034, broth microdilution in CAMHB
[9] = Enterobacter cloacae FADDI-EC001, broth microdilution in CAMHB
[10] = Enterobacter cloacae FADDI-EC003, broth microdilution in CAMHB
[11] = Enterobacter cloacae FADDI-EC006, broth microdilution in CAMHB
[12] = Pseudomonas aeruginosa ATCC 27853, broth microdilution in CAMHB
[13] = Pseudomonas aeruginosa FADDI-PA022, broth microdilution in CAMHB
[14] = Pseudomonas aeruginosa FADDI-PA025, broth microdilution in CAMHB

| Compound | Δ log (Treated-Control at 4 h) [1] [log10 CFU/mL] | MIC ([2]; K. pneumoniae FADDI-KP032) [mg/L] | MIC ([3]; A. baumannii ATCC 19606) [mg/L] | Minimum inhibitory concentration, Ab A ATCC 17978 [3, 6] [mg/L] | Minimum inhibitory concentration, Ab ATCC 19606 [3, 7] [mg/L] | Minimum inhibitory concentration, Ab FADDI-AB034 [3, 8] [mg/L] | Minimum inhibitory concentration, Ec FADDI-EC001 [4, 9] [mg/L] | Minimum inhibitory concentration, Ec FADDI-EC003 [4, 10] [mg/L] | MIC [2] [mg/L] | MIC [3] [mg/L] | Minimum inhibitory concentration, Ab A ATCC 17978 [3] [mg/L] | Minimum inhibitory concentration, Ab ATCC 19606 [3] [mg/L] | Minimum inhibitory concentration, Ab FADDI-AB034 [3] [mg/L] | Minimum inhibitory concentration, Ec FADDI-EC001 [4] [mg/L] | Minimum inhibitory concentration, Ec FADDI-EC003 [4] [mg/L] | Minimum inhibitory concentration, Ec FADDI-EC006 [4] [mg/L] | MIC [5] [mg/L] | Minimum inhibitory concentration, Pa ATCC 27853 [5] [mg/L] | Minimum inhibitory concentration, Pa FADDI-PA022 [5] [mg/L] | Minimum inhibitory concentration, Pa FADDI-PA025 [5] [mg/L] | also measured |
| --- | --- | --- | --- | --- | --- | --- | --- | --- | --- | --- | --- | --- | --- | --- | --- | --- | --- | --- | --- | --- | --- |
| CC(C)C[C@H]1NC(=O)[C@H](CCN)NC(=O)[C@@H](NC(=O)[C@H](CN)NC(=O)[C@@H](NC(=O)[C@H](CCN)NC(=O)c2cc(Cl)cc(Cl)c2)[C@@H](C)O)CCNC(=O)[C@H]([C@@H](C)O)NC(=O)[C@H](CCN)NC(=O)[C@H](CCN)NC(=O)[C@H]([C@@H](C)O)NC1=O [Compound 118] ({Benzoyl(3,5-Cl2)}-[Dab]T[Dap][Dab][Dab][dL]T[Dab][Dab]T; lactam 4-C) | −3.53 | 0.25 (≈ 0.213 µM) | 2 (≈ 1.7 µM) | >32 | 2 (≈ 1.7 µM) | 1 (≈ 0.85 µM) | 1 (≈ 0.85 µM) | 0.25 (≈ 0.213 µM) |  |  |  |  |  |  |  |  |  |  |  |  | Minimum inhibitory concentration, Ec FADDI-EC006 [4, 11]: 0.5 mg/L (≈ 0.425 µM); MIC ([5]; P. aeruginosa ATCC 27853): 0.5 mg/L (≈ 0.425 µM); Minimum inhibitory concentration, Pa ATCC 27853 [5, 12]: 0.5 mg/L (≈ 0.425 µM); Minimum inhibitory concentration, Pa FADDI-PA022 [5, 13]: 2 mg/L (≈ 1.7 µM); Minimum inhibitory concentration, Pa FADDI-PA025 [5, 14]: 2 mg/L (≈ 1.7 µM) |
| C[C@@H](O)[C@@H]1NC(=O)[C@H](CCN)NC(=O)[C@H](CCN)NC(=O)[C@H]([C@@H](C)O)NC(=O)[C@@H](Cc2ccccc2)NC(=O)[C@H](CCN)NC(=O)[C@@H](NC(=O)[C@H](CN)NC(=O)[C@@H](NC(=O)[C@H](CCN)NC(=O)c2cccc(C(F)(F)F)c2)[C@@H](C)O)CCNC1=O [Compound 124] ({Benzoyl(3-CF3)}-[Dab]T[Dap][Dab][Dab][dF]T[Dab][Dab]T; lactam 4-C) | −3.36 |  |  |  |  |  |  |  | 0.25 (≈ 0.207 µM) | 1 (≈ 0.827 µM) | 1 (≈ 0.827 µM) | 1 (≈ 0.827 µM) | 0.25 (≈ 0.207 µM) | 0.5 (≈ 0.413 µM) | <0.125 | 0.5 (≈ 0.413 µM) | 0.25 (≈ 0.207 µM) | 0.25 (≈ 0.207 µM) | 0.5 (≈ 0.413 µM) | 2 (≈ 1.65 µM) |  |
| CC[C@@H]1NC(=O)[C@@H](CC(C)C)NC(=O)[C@H](CCN)NC(=O)[C@@H](NC(=O)[C@H](CN)NC(=O)[C@@H](NC(=O)[C@H](CCN)NC(=O)c2cc(F)c(F)c(F)c2)[C@@H](C)O)CCNC(=O)[C@H]([C@@H](C)O)NC(=O)[C@H](CCN)NC(=O)[C@H](CCN)NC1=O [Compound 133] (X16-[Dab]T[Dap][Dab][Dab][dL][Abu][Dab][Dab]T; lactam 4-C; N-terminus assumed) | −3.23 |  |  |  |  |  |  |  | 0.25 (≈ 0.218 µM) | 2 (≈ 1.75 µM) | 0.5 (≈ 0.437 µM) | 2 (≈ 1.75 µM) | 0.25 (≈ 0.218 µM) | 0.5 (≈ 0.437 µM) | 0.25 (≈ 0.218 µM) | 0.25 (≈ 0.218 µM) | 0.5 (≈ 0.437 µM) | 0.5 (≈ 0.437 µM) | 0.5 (≈ 0.437 µM) | 2 (≈ 1.75 µM) |  |
| CC[C@@H]1NC(=O)[C@@H](CC(C)C)NC(=O)[C@H](CCN)NC(=O)[C@@H](NC(=O)[C@H](CN)NC(=O)[C@@H](NC(=O)[C@H](CCN)NC(=O)Cc2ccc(C(F)(F)F)cc2)[C@@H](C)O)CCNC(=O)[C@H]([C@@H](C)O)NC(=O)[C@H](CCN)NC(=O)[C@H](CCN)NC1=O [Compound 127] ({Phenylacetyl(4-CF3)}-[Dab]T[Dap][Dab][Dab][dL][Abu][Dab][Dab]T; lactam 4-C) | −3.51 |  |  |  |  |  |  |  | 0.5 (≈ 0.426 µM) | 4 (≈ 3.41 µM) | 1 (≈ 0.852 µM) | 4 (≈ 3.41 µM) | 0.5 (≈ 0.426 µM) | <0.125 | 0.25 (≈ 0.213 µM) | 0.5 (≈ 0.426 µM) | 0.5 (≈ 0.426 µM) | 0.5 (≈ 0.426 µM) | 0.5 (≈ 0.426 µM) | 16 (≈ 13.6 µM) |  |
| CCC(C)CCCCC(=O)N[C@@H](CCN)C(=O)N[C@H](C(=O)N[C@@H](CN)C(=O)N[C@H]1CCNC(=O)[C@H]([C@@H](C)O)NC(=O)[C@H](CCN)NC(=O)[C@H](CCN)NC(=O)[C@H](CC)NC(=O)[C@@H](CC(C)C)NC(=O)[C@H](CCN)NC1=O)[C@@H](C)O (stereo partly drawn) [Compound 139] ({Octanoyl(6-Me)}-[Dab]T[Dap][Dab][Dab][dL][Abu][Dab][Dab]T; lactam 4-C) | −3.19 |  |  |  |  |  |  |  | <0.125 | 0.5 (≈ 0.443 µM) |  |  |  |  |  |  | 1 (≈ 0.887 µM) |  |  |  | Minimum inhibitory concentration (MIC), Ab ATCC 17978 [3]: 0.25 mg/L (≈ 0.222 µM); Minimum inhibitory concentration (MIC), Ab ATCC 19606 [3]: 0.5 mg/L (≈ 0.443 µM); Minimum inhibitory concentration (MIC), Ab FADDI-AB034 [3]: 0.25 mg/L (≈ 0.222 µM); Minimum inhibitory concentration (MIC), Ec FADDI-EC001 [4]: 0.5 mg/L (≈ 0.443 µM); Minimum inhibitory concentration (MIC), Ec FADDI-EC003 [4]: 0.25 mg/L (≈ 0.222 µM); Minimum inhibitory concentration (MIC), Ec FADDI-EC006 [4]: 1 mg/L (≈ 0.887 µM); Minimum inhibitory concentration (MIC), Pa ATCC 27853 [5]: 1 mg/L (≈ 0.887 µM); Minimum inhibitory concentration (MIC), Pa FADDI-PA022 [5]: 2 mg/L (≈ 1.77 µM); Minimum inhibitory concentration (MIC), Pa FADDI-PA025 [5]: 1 mg/L (≈ 0.887 µM) |
| CC(C)C[C@H]1NC(=O)[C@H](CCN)NC(=O)[C@@H](NC(=O)[C@H](CN)NC(=O)[C@@H](NC(=O)[C@H](CCN)NC(=O)Cc2cccc(Cl)c2)[C@@H](C)O)CCNC(=O)[C@H]([C@@H](C)O)NC(=O)[C@H](CCN)NC(=O)[C@H](CCN)NC(=O)[C@H]([C@@H](C)O)NC1=O [Compound 61] ({Phenylacetyl(3-Cl)}-[Dab]T[Dap][Dab][Dab][dL]T[Dab][Dab]T; lactam 4-C) | −4.75 | 0.25 (≈ 0.216 µM) | 4 (≈ 3.46 µM) | 2 (≈ 1.73 µM) | 4 (≈ 3.46 µM) | 1 (≈ 0.865 µM) | 0.25 (≈ 0.216 µM) | 0.25 (≈ 0.216 µM) |  |  |  |  |  |  |  |  |  |  |  |  | Minimum inhibitory concentration, Ec FADDI-EC006 [4, 11]: 0.25 mg/L (≈ 0.216 µM); MIC ([5]; P. aeruginosa ATCC 27853): 0.5 mg/L (≈ 0.433 µM); Minimum inhibitory concentration, Pa ATCC 27853 [5, 12]: 0.5 mg/L (≈ 0.433 µM); Minimum inhibitory concentration, Pa FADDI-PA022 [5, 13]: 0.5 mg/L (≈ 0.433 µM); Minimum inhibitory concentration, Pa FADDI-PA025 [5, 14]: >32 mg/L |
